Measurements taken from article PMC3477287 (ACS chemical biology, 2012).

Biological target: MbtA (Mycobacterium tuberculosis, UniProt P71716)
Assay: […]
Format: biochemical

Sequence of MbtA (P71716 whole entry): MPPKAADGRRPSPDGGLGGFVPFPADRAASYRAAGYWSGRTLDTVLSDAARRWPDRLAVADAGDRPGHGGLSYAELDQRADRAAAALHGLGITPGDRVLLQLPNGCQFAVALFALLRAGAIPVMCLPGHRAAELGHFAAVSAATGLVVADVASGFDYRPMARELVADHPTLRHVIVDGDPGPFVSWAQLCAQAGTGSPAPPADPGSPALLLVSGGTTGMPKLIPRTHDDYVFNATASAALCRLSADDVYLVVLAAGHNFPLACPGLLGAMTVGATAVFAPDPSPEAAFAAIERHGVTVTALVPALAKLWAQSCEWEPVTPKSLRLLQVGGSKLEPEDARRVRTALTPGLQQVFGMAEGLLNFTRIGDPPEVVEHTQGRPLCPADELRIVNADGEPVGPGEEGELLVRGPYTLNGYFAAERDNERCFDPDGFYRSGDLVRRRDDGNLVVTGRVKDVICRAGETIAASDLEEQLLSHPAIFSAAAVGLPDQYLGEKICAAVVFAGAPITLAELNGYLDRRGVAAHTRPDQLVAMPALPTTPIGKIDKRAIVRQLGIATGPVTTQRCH

Question: Which Ki does the source give for Sal-AMS ABP [compound 6] here?
Answer: 0.94 nM
